Measurements published in the NIST ThermoML archive (doi:10.1021/je060271a).

Conditions: 283.14 K, Liquid, Vibrating tube method

CCCCCCC(=O)OCC(COC(=O)CCCCCC)(COC(=O)CCCCCC)COC(=O)CCCCCC [pentaerythritol tetraheptanoate]
Conditions | mass density [kg/m3]
19935 kPa | 997
19962 kPa | 996.9
19984 kPa | 996.9
20007 kPa | 996.9
20034 kPa | 997
20057 kPa | 997
20081 kPa | 997
20105 kPa | 997
20133 kPa | 997
20156 kPa | 997
20179 kPa | 997.1
20202 kPa | 997
20230 kPa | 997
20253 kPa | 997.1
20282 kPa | 997.1
20305 kPa | 997
20328 kPa | 997.1
20356 kPa | 997.1
20380 kPa | 997.1
20404 kPa | 997.2
20428 kPa | 997.2
20456 kPa | 997.2
20480 kPa | 997.2
20504 kPa | 997.2
20533 kPa | 997.2
20557 kPa | 997.2
20586 kPa | 997.3
20610 kPa | 997.3
20634 kPa | 997.3
20663 kPa | 997.3
20688 kPa | 997.3
20713 kPa | 997.3
20742 kPa | 997.2
20768 kPa | 997.5
20792 kPa | 997.5
20822 kPa | 997.5
20846 kPa | 997.4
20871 kPa | 997.4
20896 kPa | 997.4
20926 kPa | 997.4
20951 kPa | 997.4
20976 kPa | 997.4
21007 kPa | 997.6
21032 kPa | 997.5
21062 kPa | 997.5
21088 kPa | 997.5
21114 kPa | 997.6
21140 kPa | 997.6
21171 kPa | 997.6
21196 kPa | 997.4
21222 kPa | 997.6
21254 kPa | 997.6
21279 kPa | 997.6
21310 kPa | 997.7
21336 kPa | 997.5
21362 kPa | 997.7
21393 kPa | 997.6
21419 kPa | 997.7
21446 kPa | 997.7
21473 kPa | 997.7
21505 kPa | 997.7
21531 kPa | 997.7
21558 kPa | 997.6
21585 kPa | 997.8
21617 kPa | 997.6
21644 kPa | 997.8
21671 kPa | 997.9
21703 kPa | 997.8
21730 kPa | 997.9
21758 kPa | 997.8
21790 kPa | 997.9
21818 kPa | 997.9
21846 kPa | 997.9
21873 kPa | 997.7
21906 kPa | 998
21933 kPa | 997.9
21961 kPa | 998
21994 kPa | 997.9
22022 kPa | 997.9
22055 kPa | 998
22083 kPa | 998
22111 kPa | 997.9
22139 kPa | 998.1
22174 kPa | 998.1
22199 kPa | 998
22233 kPa | 998.1
22261 kPa | 998.2
22294 kPa | 998.1
22323 kPa | 998.1
22352 kPa | 998.2
22381 kPa | 998.2
22416 kPa | 998.2
22444 kPa | 998.2
22474 kPa | 998.1
22509 kPa | 998.2
22538 kPa | 998.2
22569 kPa | 998.2
22599 kPa | 998.2
22628 kPa | 998.3
22664 kPa | 998.4
22694 kPa | 998.3
22724 kPa | 998.3
22760 kPa | 998.4
22789 kPa | 998.4
22819 kPa | 998.3
22855 kPa | 998.4
22886 kPa | 998.5
22915 kPa | 998.4
22952 kPa | 998.5
22982 kPa | 998.4
23012 kPa | 998.5
23049 kPa | 998.6
